# Laboratory results reported in the supplement of paper PMC3974653.
# Where a name gives a salt, the structure may show the parent alone.
# Tested on: MTT (mouse pheochromocytoma)
# Assay: IC50 of cell viability (ATP content)
# Details: (24 or 48 h)
# How it was run: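 MTT mouse pheochromocytoma cells in white 1536-well plates were treated for 24 or 48 hrs with library compounds at 8 final concentrations from 0.5 nM to 46 µM. ATP content was measured with CellTiter-Glo luminescence, using positive-control wells as 100% and DMSO wells as 0%. IC50 came from a four-parameter logistic fit.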
row,SMILES,IC50 of cell viability [µM]
1,Cc1cc(O)cc2c1O[C@](C)(CCC[C@H](C)CCC[C@H](C)CCCC(C)C)CC2 [Delta-Vitamin E],> 46
2,CN(C)[C@H]\1[C@@H]2C[C@@H]\3[C@@H](O)C4=C(Cl)C=CC(=C4C(=O)C3=C(\O)[C@@]2(O)C(=O)\C(=C1O)C(N)=O)O [Demeclocycline hydrochloride],> 46
3,O=C1C[N+]([O-])=C(c2ccccc2)c2cc(Cl)ccc2N1 [Demoxepam],> 46
4,C[C@H](CCC(=O)[O-])[C@H]1CC[C@H]2[C@@H]3CC[C@@H]4C[C@H](O)CC[C@]4(C)[C@H]3C[C@H](O)[C@]12C [Deoxycholic acid sodium salt],> 46
5,C[C@@]12CC[C@H]3[C@@H](CC\C4=C\C(=O)CC[C@@]34C)[C@H]1CC[C@H]2C(=O)CO [Deoxycorticosterone],> 46
6,C[C@]12CC[C@H]3c4ccc(O)cc4CC[C@@H]3[C@H]1CC[C@@H]2OC(=O)CCC1CCCC1 [Depoestradiol],> 46
7,CCCCNc1ccc(C(=O)OCC[NH+](CC)CC)cc1 [Depolipon],> 46
8,CN1[C@@H]2CC[C@@H]1CC(OC1c3ccccc3CCc3ccccc31)C2.O=C(O)CC(O)(CC(=O)O)C(=O)O (some centres not stated) [Deptropine citrate],> 46
9,CNCCCN1c2ccccc2CCc2ccccc21 [Desipramine hydrochloride],> 46
10,ClC1=CC=C2C(CCC3=C(N=CC=C3)\C2=C4\CCNCC4)=C1 [Desloratadine],> 46
11,ClC1=CC=C2NC(=O)C\N=C(\C3=CC=CC=C3)C2=C1 [Desmethyldiazepam],> 46
12,C[C@@H]1C[C@H]2[C@@H]3CCC/4=C/C(=O)/C=C\[C@]4(C)[C@@]3(F)[C@@H](O)C[C@]2(C)[C@H]1C(=O)CO [Desoximetasone],> 46
13,Cc1cccc(Cc2c[nH]cn2)c1C [Detomidine],> 46
14,N[C@@H](Cc1cc(I)c(Oc2ccc(O)c(I)c2)c(I)c1)C(=O)O [Detrothyronin],> 46
15,C[C@@H]1C[C@@H]2[C@H]3CC\C4=C\C(=O)\C=C/[C@]4(C)[C@]3(F)[C@@H](O)C[C@@]2(C)[C@@]1(O)C(=O)COC(C)=O [Dexamethasone acetate],> 46
16,CN(C)CC[C@@H](c1ccc(Br)cc1)c1ccccn1 [Dexbrompheniramine maleate salt],> 46
17,CC(C)Cc1ccc([C@H](C)C(=O)O)cc1 [Dexibuprofen],> 46
18,Br.COc1ccc2c(c1)[C@]13CCCC[C@@H]1[C@H](C2)N(C)CC3.O [Dextromethorphan hydrobromide monohydrate],> 46
19,CN1CC[C@@]23CCCC[C@@H]2[C@@H]1Cc1ccc(O)cc13 [Dextrorphan tartrate],> 46
20,CCCCC(CC)COC(=O)c1ccccc1C(=O)OCC(CC)CCCC (configuration not stated) [Di(2-ethylhexyl) phthalate],> 46
21,CC(=O)Nc1ccc(OC(C)=O)cc1 [Diacetamate],> 46
22,CC(=O)Nc1ccc(OCCOCCOc2ccc(NC(C)=O)cc2)cc1 [Diamfenetida],> 46
23,CC(=O)Nc1c(I)c(NC(C)=O)c(I)c(C(=O)O)c1I [Diatrizoic acid dihydrate],> 46
24,CN1C(=O)CN=C(c2ccccc2)c2cc(Cl)ccc21 [Diazepam],> 46

row,SMILES,IC50 of cell viability [µM]
1,CCOP(=S)(OCC)Oc1cc(C)nc(C(C)C)n1 [Diazinon],> 46
2,CN(Cc1ccccc1)Cc1ccccc1 [Dibemethine],> 46
3,CN(C)CCN1C(=O)c2ccccc2N(C)c2ccccc21 [Dibenzepina],> 46
4,N=C(N)c1ccc(OCCCOc2ccc(C(=N)N)cc2Br)c(Br)c1 [Dibromopropamidine Dihydrochloride],> 46
5,CCCCOc1cc(C(=O)NCCN(CC)CC)c2ccccc2n1 [Dibucaine],> 46
6,CC(C)(C)c1ccc2c(S(=O)(=O)[O-])c(C(C)(C)C)ccc2c1 [Dibunic acid],> 46
7,NCCN.[Cl-].[Cl-].[Pt+2] [Dichloro(ethylenediamine)platinum(II)],> 46
8,O=C(O)C(Cl)Cl [Dichloroacetic acid],> 46
9,N[S+](=O)([O-])c1cc(Cl)c(Cl)c([S+](N)(=O)[O-])c1 [Dichlorphenamide],> 46
10,COP(=O)(OC)OC=C(Cl)Cl [Dichlorvos (Vapona)],> 46
11,O=C(NC(O)C(Cl)(Cl)Cl)NC(O)C(Cl)(Cl)Cl (configuration not stated) [Dicloralurea],> 46
12,Cc1onc(-c2c(Cl)cccc2Cl)c1C(=O)N[C@@H]1C(=O)N2[C@@H]1SC(C)(C)[C@@H]2C(=O)[O-] [Dicloxacillin sodium salt monohydrate],> 46
13,O\C1=C(/C/C2=C(\O)C3=C(OC2=O)C=CC=C3)C(=O)OC4=C1C=CC=C4 [Dicumarol],> 46
14,C1CCC(NC2CCCCC2)CC1 [Dicyclohexylamine],> 46
15,CCN(CC)CCOC(=O)C1(C2CCCCC2)CCCCC1 [Dicyclomine],> 46
16,C1\C=C/C2C\3CC(\C=C3)C12 (configuration not stated) [Dicyclopentadiene],> 46
17,S=C(SSC(=S)N1CCCCC1)N1CCCCC1 [Dicyclopentamethylenethiuram disulfide],> 46
18,OC[C@@H]1CC[C@H](n2cnc3c(O)ncnc32)O1 [Didanosine],> 46
19,ClC/1=C(Cl)/[C@@]2(Cl)[C@H]3[C@H]4C[C@H]([C@@H]5O[C@H]45)[C@H]3[C@]1(Cl)C2(Cl)Cl [Dieldrin],> 46
20,C/C=C(\C(=C\C)c1ccc(O)cc1)c1ccc(O)cc1 [Dienestrol],> 46
21,CCOC(=O)c1ccccc1C(=O)OCC [Diethyl phthalate],> 46
22,CCN(CC)C(=O)N1CCN(C)CC1.O=C(O)CC(O)(CC(=O)O)C(=O)O [Diethylcarbamazine citrate],> 46
23,COCCOCCO [Diethylene glycol monomethyl ether],> 46
24,NCCNCCN [Diethylenetriamine],> 46

row,SMILES,IC50 of cell viability [µM]
1,NC(=O)Oc1ccc(Cc2ccccc2)cc1 [Difenano],> 46
2,C[C@H]1C[C@H]2[C@@H]3C[C@H](F)C/4=C/C(=O)/C=C\[C@]4(C)[C@@]3(F)[C@@H](O)C[C@]2(C)[C@@]1(OC(C)=O)C(=O)COC(C)=O [Diflorasone diacetate],> 46
3,O=C(O)c1cc(-c2ccc(F)cc2F)ccc1O [Diflunisal],> 46
4,O=C1c2ccccc2CN2C(=O)c3ccccc3CN12 [Diftalone],> 46
5,CC1OC(OC2C(O)CC(OC3C(O)CC(OC4CCC5(C)C(CCC6C5CCC5(C)C(C7=CC(=O)OC7)CCC65O)C4)OC3C)OC2C)CC(O)C1O (configuration not stated) [Digitoxin],> 46
6,C[C@H]1O[C@H](C[C@H](O)[C@@H]1O)O[C@H]2[C@@H](O)C[C@@H](O[C@@H]2C)O[C@H]3[C@@H](O)C[C@@H](O[C@@H]3C)O[C@H]4CC[C@@]5(C)[C@H](CC[C@@H]6[C@@H]5C[C@@H](O)[C@]7(C)[C@H](CC[C@]67O)C/8=C/C(=O)OC8)C4 [Digoxin],> 46
7,CC(C)CC1C(=O)N2CCCC2C2(O)OC(NC(=O)C3CC4c5cccc6[nH]cc(c56)CC4N(C)C3)(C(C)C)C(=O)N12 (configuration not stated) [Dihydroergocriptine],> 46
8,CC(C)[C@@]1(NC(=O)[C@@H]2C[C@@H]3c4cccc5[nH]cc(c45)C[C@H]3N(C)C2)O[C@@]2(O)[C@@H]3CCCN3C(=O)[C@H](Cc3ccccc3)N2C1=O [Dihydroergocristine],> 46
9,COc1ccc2c3c1OC1[C@H](O)CCC4[C@@H](C2)N(C)CC[C@]314 (some centres not stated) [Dihydroisocodeine],> 46
10,CN1CC[C@]23c4c5ccc(O)c4OC2C(O)CCC3[C@H]1C5 (some centres not stated) [Dihydromorphine],> 46
11,CC(C)NC(C)C [Diisopropyl amine],> 46
12,C=Cc1ccc(C=C)cc1.C=Cc1ccccc1.CC(C)N(Cc1ccccc1)C(C)C [Diisopropylaminomethyl-polystyrene],> 46
13,CC1(C)OC[C@@H]2O[C@@]3(C(=O)O)OC(C)(C)O[C@@H]3[C@@H]2O1 [Dikegulac],> 46
14,CN(C(=O)C(Cl)Cl)c1ccc(OC(=O)c2ccco2)cc1 [Diloxanide furoate],> 46
15,Cc1ccc2c(c1)[C@]13CCCC[C@@H]1[C@@H](C2)N(C)CC3 [Dimemorfan phosphate],> 46
16,CC(O)CN(C)C (configuration not stated) [Dimepranolum],> 46
17,CN(C)CCCN1c2ccccc2C(C)(C)c2ccccc21 [Dimetacrine],> 46
18,CCCCc1cc2ccccc2c(OCCN(C)C)n1 [Dimethisoquin hydrochloride],> 46
19,CC(CN1c2ccccc2Sc2ccc([S+](=O)([O-])N(C)C)cc21)N(C)C (configuration not stated) [Dimethothiazine],> 46
20,COC(=O)C(Cl)C(=O)OC [Dimethyl chloromalonate],> 46
21,COC(=O)c1ccccc1C(=O)OC [Dimethyl phthalate],> 46
22,Nc1ccc(C(=O)Nc2ccccc2N)cc1 [Dinaline],> 46
23,CCCCC[C@H](O)/C=C\[C@H]1[C@H](C/C=C\CCCC(=O)O)[C@@H](O)C[C@H]1O.COC(N)(CO)CO [Dinoprost trometamol],> 46
24,CCCCC[C@H](O)/C=C/[C@@H]1[C@@H](C/C=C\CCCC(=O)O)[C@@H](O)C[C@H]1O [Dinoprost tromethamine],> 46
